Molecules are shown by their SMILES.

For orientation: IC50 means the concentration at which inhibition is half-maximal. The low end stands for higher potency, the high end for lower potency.

Sequence of C-Raf FL (P04049 whole entry Y340E/Y341E): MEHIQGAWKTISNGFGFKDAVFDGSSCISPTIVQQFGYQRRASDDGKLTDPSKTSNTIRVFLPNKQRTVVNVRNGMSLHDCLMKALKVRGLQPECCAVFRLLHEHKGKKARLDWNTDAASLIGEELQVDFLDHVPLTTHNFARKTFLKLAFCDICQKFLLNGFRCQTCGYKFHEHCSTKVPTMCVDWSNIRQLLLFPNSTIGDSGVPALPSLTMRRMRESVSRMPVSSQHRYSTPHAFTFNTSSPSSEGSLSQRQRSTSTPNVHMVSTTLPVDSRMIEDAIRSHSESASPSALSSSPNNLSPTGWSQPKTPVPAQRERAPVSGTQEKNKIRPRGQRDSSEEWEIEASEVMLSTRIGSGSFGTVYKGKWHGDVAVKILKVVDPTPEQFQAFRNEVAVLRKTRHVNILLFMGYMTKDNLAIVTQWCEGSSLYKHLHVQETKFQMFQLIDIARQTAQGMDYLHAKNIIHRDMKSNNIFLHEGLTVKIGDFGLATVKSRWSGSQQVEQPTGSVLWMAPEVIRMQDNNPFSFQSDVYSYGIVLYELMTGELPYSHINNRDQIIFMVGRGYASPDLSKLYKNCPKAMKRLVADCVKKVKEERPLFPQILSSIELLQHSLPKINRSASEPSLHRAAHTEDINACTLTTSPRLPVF
Sequence of C-Raf FL (P63104 whole entry partner): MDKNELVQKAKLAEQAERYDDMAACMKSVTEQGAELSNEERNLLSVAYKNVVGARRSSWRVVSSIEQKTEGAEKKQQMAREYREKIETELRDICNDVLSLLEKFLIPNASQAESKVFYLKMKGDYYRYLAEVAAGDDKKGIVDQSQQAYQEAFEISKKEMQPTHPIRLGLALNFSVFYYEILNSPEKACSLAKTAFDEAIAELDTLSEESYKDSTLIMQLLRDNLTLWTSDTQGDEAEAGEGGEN

This test addresses C-Raf FL (Homo sapiens (Human), UniProt P04049, Y340E/Y341E). The test is described as follows: In vitro Raf activity determination (Alpha Screen, phospho-MEK), C-Raf FL (full length, Y340E/Y341E). The note with it: ATP 1 μM; 60 min pre-incubation; 1 hour reaction; column head does not say FL or TR. Format: biochemical. The gist of the method:
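Read-out is AlphaScreen luminescence using rabbit anti-p-MEK with protein A beads after EDTA stop, with IC50 fitted by non-linear regression. Reaction: Sf9-derived C-Raf plus biotinylated E. coli MEK1 K97R substrate, pH 7.5 Tris/MgCl2/DTT buffer, compound preincubated 60 min at room temperature.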
Regarding `Cc1ccc(NC(=O)c2ccnc(C(C)(C)C#N)c2)cc1-c1cc(C2(O)COC2)cc(C2(F)COC2)c1` [Example 138, 2-(2-cyanopropan-2-yl)-N-(3′-(3-fluorooxetan-3-yl)-5′-(3-hydroxyoxetan-3-yl)-6-methyl-[1,1′-biphenyl]-3-yl)isonicotinamide], inhibition was half-maximal at 2.19 nM (IC50).
The value for `CCOc1ncc(-c2cc(NC(=O)c3ccnc(C(C)(C)C#N)c3)ccc2C)cc1C1(C#N)CCOC1` (centres unmarked) [Example 169, 2-(2-cyanopropan-2-yl)-N-(3-(5-(3-cyanotetrahydrofuran-3-yl)-6-ethoxypyridin-3-yl)-4-methylphenyl) isonicotinamide] was 2 nM.
The value for `COc1cc(C(=O)Nc2ccc(C)c(-c3cc(OCCO)nc(C4CCOCC4)c3)c2)ncn1` [Example 267, N-(3-(2-(2-hydroxyethoxy)-6-(tetrahydro-2H-pyran-4-yl)pyridin-4-yl)-4-methylphenyl)-6-methoxypyrimidine-4-carboxamide] was 0.005 nM.
The value for `Cc1ccc(NC(=O)c2ccnc(C(F)(F)F)c2)cc1-c1cc(OCCO)nc(C2CCOCC2)c1` [Example 190, N-(3-(2-(2-hydroxyethoxy)-6-(tetrahydro-2H-pyran-4-yl)pyridin-4-yl)-4-methylphenyl)-2-(trifluoromethyl) isonicotinamide] was 0.795 nM; that for `Cc1ccc(NC(=O)c2cccc(C(F)(F)F)c2)cc1-c1cc(C2CCOCC2)nc(N2CCC(O)CC2)c1` [Example 186, N-(3-(2-(4-hydroxypiperidin-1-yl)-6-(tetrahydro-2H-pyran-4-yl)pyridin-4-yl)-4-methylphenyl)-3-(trifluoromethyl) benzamide] was 0.83 nM.
With `Cc1ccc(NC(=O)c2ccnc(C(F)(F)F)c2)cc1-c1cc(OCCO)nc(C2(F)CCOCC2)c1` [Example 306, N-(3-(2-(4-fluorotetrahydro-2H-pyran-4-yl)-6-(2-hydroxy-ethoxy)pyridin-4-yl)-4-methyl-phenyl)-2-(trifluoromethyl) isonicotinamide], half-maximal inhibition (IC50) was put at 0.83 nM.
Under `Cc1ccc(NC(=O)c2ccnc(C(F)F)c2)cc1-c1cc(OCCO)nc(C2(F)COC2)c1` [Example 53] stands 0.624 nM; under `Cc1ccc(NC(=O)c2ccnc(C(C)(F)F)c2)cc1-c1cc2c(c(C3CCOCC3)c1)OC(C)(C)C(=O)N2` [Example 197, 2-(1,1-difluoroethyl)-N-(3-(2,2-dimethyl-3-oxo-8-(tetrahydro-2H-pyran-4-yl)-3,4-dihydro-2H-benzo[b][1,4]oxazin-6-yl)-4-methylphenyl) isonicotinamide], 0.4 nM.
The value for `Cc1ccc(NC(=O)c2cnnc(C(F)(F)F)c2)cc1-c1cc(OCCO)nc(C2CCOCC2O)c1` (centres unmarked) [Example 245] was 1 nM; that for `COC1(c2cc(-c3cc(NC(=O)c4ccnc(C(F)(F)F)c4)ccc3C)cc(OCCO)n2)COC1` [Example 157, N-(3-(2-(2-hydroxyethoxy)-6-(3-methoxyoxetan-3-yl)pyridin-4-yl)-4-methylphenyl)-2-(trifluoromethyl)isonicotin-amide] was 0.3 nM.
For the compound `Cc1ccc(NC(=O)c2ccnc(C(F)(F)F)c2)cc1-c1cc(C2CCOCC2)c(OC2CCOCC2)nn1` [Example 313, N-(4-methyl-3-(5-tetrahydro-2H-pyran-4-yl-6-((tetrahydro-2H-pyran-4-yl)oxy)pyridazin-3-yl)phenyl)-2-(trifluoromethyl)isonicotinamide], inhibition was half-maximal at 0.07 nM (IC50).
The value for `Cc1ncc(NC(=O)c2cccc(C(F)(F)F)c2)cc1-c1cc(C2(C)COC2)c(OCCO)nn1` [Example 16, N-(5-(6-(2-hydroxyethoxy)-5-(3-methyloxetan-3-yl)pyridazin-3-yl)-6-methylpyridin-3-yl)-3-(trifluoromethyl)benzamide] was 0.4 nM; that for `Cc1ncc(NC(=O)c2ccnc(C(C)(C)F)c2)cc1-c1cnc(OCCO)c(C2(F)COC2)c1` [Example 40, N-(5′-(3-fluorooxetan-3-yl)-6′-(2-hydroxyethoxy)-2-methyl-[3,3′-bipyridin]-5-yl)-2-(2-fluoropropan-2-yl)isonicotinamide] was 3.47 nM.
Compound `Cc1ccc(NC(=O)c2ccnc(C(C)(F)F)c2)cc1-c1cc(OCCO)nc(C2CCOCC2O)c1` (centres unmarked) [Example 243, 2-(1,1-difluoroethyl)-N-(3-(2-(2-hydroxyethoxy)-6-(3-hydroxytetrahydro-2H-pyran-4-yl)pyridin-4-yl)-4-methylphenyl) isonicotinamide] came in with an IC50 of 1 nM.
Turning to `CCOc1ncc(-c2cc(NC(=O)c3ccnc(C(C)(C)F)c3)ccc2C)cc1C1(CO)CCOC1` (centres unmarked) [Example 291, N-(3-(6-ethoxy-5-(3-(hydroxymethyl)tetrahydrofuran-3-yl)pyridin-3-yl)-4-methylphenyl)-2-(2-fluoropropan-2-yl)isonicotinamide], the IC50 turned out to be 1 nM.
`Cc1ncc(NC(=O)c2cccc(C(F)(F)F)c2)cc1-c1cc(OCCO)nc(C2(F)COC2)c1` [Example 52, N-(2′-(3-fluorooxetan-3-yl)-6′-(2-hydroxyethoxy)-2-methyl-[3,4′-bipyridin]-5-yl)-3-(trifluoromethyl)benzamide]: half-maximal inhibition (IC50) required 2.15 nM.
Under `Cc1ccc(NC(=O)c2cccc(C(F)(F)F)c2)cc1-c1cccc(C2COC2)c1` [Example 2, N-(6-methyl-3′-(oxetan-3-yl)-[1,1′-biphenyl]-3-yl)-3-(trifluoromethyl)benzamide] stands 0.7 nM.
The value for `Cc1ncc(NC(=O)c2cccc(C(F)(F)F)c2)cc1-c1cc(N2CCOC2=O)nc(C2(O)CCOCC2)c1` [Example 301, N-(2′-(4-hydroxytetrahydro-2H-pyran-4-yl)-2-methyl-6′-(2-oxooxazolidin-3-yl)-[3,4′-bipyridin]-5-yl)-3-(trifluoromethyl) benzamide] was 0.951 nM; that for `CCOc1nnc(-c2cc(NC(=O)NCCC(C)(C)C)ccc2C)cc1C1CCOCC1` [Example 318, 1-(3,3-dimethylbutyl)-3-(3-(6-ethoxy-5-(tetrahydro-2H-pyran-4-yl)pyridazin-3-yl)-4-methylphenyl)urea] was 0.1 nM; that for `Cc1ccc(NC(=O)c2cc(C(F)(F)F)ccn2)cc1-c1cc(OCCO)nc(C2(C)CCOCC2)c1` [Example 209, N-(3-(2-(2-hydroxyethoxy)-6-(4-methyltetrahydro-2H-pyran-4-yl)pyridin-4-yl)-4-methylphenyl)-4-(trifluoromethyl) picolinamide] was 0.2 nM.
The value for `CCOc1ncc(-c2cc(NC(=O)c3cccc(C(F)(F)F)c3)cnc2C)cc1C1(O)CCOC1` (centres unmarked) [Example 294, N-(6′-ethoxy-5′-(3-hydroxytetrahydro-furan-3-yl)-2-methyl-[3,3′-bipyridin]-5-yl)-3-(trifluoromethyl) benzamide] was 2 nM; that for `CCOc1nnc(-c2cc(NC(=O)c3cnc(C(F)(F)F)cn3)ccc2C)cc1C1CCOCC1` [Example 230, N-(3-(6-ethoxy-5-(tetrahydro-2H-pyran-4-yl)pyridazin-3-yl)-4-methylphenyl)-5-(trifluoromethyl) pyrazine-2-carboxamide] was 11 nM.
For the compound `Cc1ccc(NC(=O)c2cc(C(F)(F)F)ccn2)cc1-c1cc(OCCO)nc(C2(CF)CCOCC2)c1` [Example 214, N-(3-(2-(4-(fluoromethyl)tetrahydro-2H-pyran-4-yl)-6-(2-hydroxyethoxy)pyridin-4-yl)-4-methylphenyl)-4-(trifluoromethyl) picolinamide], the IC50 was 0.3 nM.

These data come from patent publication US10167279B2 (NOVARTIS AG, priority 2014, dated 2019).
